Values of other authors as cited in patent US6214377A (Jenapharm GmbH, priority 1994, dated 2001).

Experiments:
[1] = peroral administration
[2] = human body

## COc1ccc2[nH]cc(CCNC(C)=O)c2c1 [melatonin, N-acetyl-5-methoxy-triptamine]
[1]
  side effects of unphysiological overdose: Increased spasmogenic situations, confusion, and sleeplessness
[2]
  half-life period: about 30 minutes
